{
  "source": "patent US4707481A",
  "about": "“Pyridazinones, their preparation and use, and bronchospasmolytic medicaments containing pyridazinones” (BYK Gulden Lomberg Chemische Fabrik GmbH, priority 1983, dated 1987)",
  "key": {"[1]": {"tested_on": "electrically stimulated left atrium of rats", "experiment": "positive inotropic action on electrically stimulated left atrium in vitro", "design": "species or system rat", "conditions": "for [EC40 pot.] theophylline / [EC40 pot.] substance: Column E, left atrium; for EC40: Rattus norvegicus, Column B, negative logarithm of EC40pot in mol/l, 40% increase in contraction force, read-out: -lg[EC40 pot.] left atrium (converted)"}, "[2]": {"tested_on": "chain of tracheal rings of guinea pigs", "experiment": "relaxing action on chain of tracheal rings in vitro (bronchospasmolytic action)", "design": "species or system guinea pig", "conditions": "for EC50: Cavia porcellus, Column A, negative logarithm of EC50 in mol/l, 50% of maximum relaxation by (-)isoprenaline, read-out: -lg[EC50] trachea (converted); for [EC40 pot.] left atrium / [EC50] trachea: Column C, measure of organ-selective activity; for [EC50] theophylline / [EC50] substance: Column D, trachea", "protocol": "The relaxing action of the 6-aryl-3[2H]pyridazinones I has been tested in vitro on a chain of tracheal rings (Tr.) of guinea pigs. […] The quotient of [EC40pot. ]left atrium and [ED50 ]trachea serves as a measure of the organ-selective activity.\nThe bronchospasmolytic action of the compounds on the chain of tracheal rings of the guinea pig was tested in vitro:\nFour parallel chains of tracheal rings, each consisting of 6 individual rings, of guinea pigs(.male. and .female., 430-600 g) in an organ bath [5 ml, Krebs-Henseleit solution with added phentolamine (10^-5 mol/l), 37° C., initial tension of the organs 2 g, gassing with carbogen] develop a stable, spontaneous tonic contraction after about 20 to 30 minutes. […] Over a period of 20 to 30 minutes, a complete dose/action curve of the test substance is thus obtained. The particular relaxation is expressed as a percentage fraction of the maximum relaxation which can be achieved by administration of (-)isoprenaline (10^-6 mol/1). The concentration of the test substance which causes 50% of the maximum relaxation which can be achieved, expressed by the negative logarithm of the EC50 mol/l: -lg[EC50 ]is a measure of the bronchodilator activity."}, "[3]": {"experiment": "toxicity studies, mouse p.o.", "conditions": "mouse, in vivo, po, 10080 min", "procedure": "The toxicity studies are carried out on female NMRI mice (body weight 23-30 g). The animals (5 animals per dose) receive food and water ad libitum. Various doses of the substances are administered once as a suspension in methocel via a gavage. The period of observation lasts 7 days. The tolerated dose (TD), that is to say the highest dose at which as yet none of the animals die, is determined by observation. The average lethal dose (LD50), that is to say the dose at which 50% of the animals die, is determined from the dose/action curve by means of linear regression."}, "[4]": {"tested_on": "histamine-induced bronchospasm", "experiment": "inhibition of histamine-induced bronchospasm in anesthetized guinea pigs", "type": "in vivo, guinea pig", "conditions": "for inhibition of histamine-induced bronchospasm, TVi / inhibition of histamine-induced bronchospasm, Vmaxe / inhibition of histamine-induced bronchospasm, Vmaxi: 20 μmol/kg i.v.", "procedure": "A method for simultaneously recording pharmacodynamic and toxic effects on internal sensitive receptors, on the respiration and the cardiovascular system of guinea pigs was used [U. Kilian, E. Muller, E. Ch. […] To characterize the bronchospasm induced by histamine (0.09-0.18 μmol /kg i.v.), the maximum flow rate of the respiratory air during inspiration (Vmaxi) and expiration (Vmaxe) and the breath volume (BVi) were measured. A histamine spasm before administration of the substance was compared with several histamine spasms after administration of the substance. The test substances were administered intravenously (i.v.) and/or intrajejunally (i.j.). 5 to 10 animals were used per measurement, and the arithmetic mean was calculated from the results."}, "[5]": {"tested_on": "acetylcholine-induced bronchospasm", "experiment": "protective effect against acetylcholine-induced bronchospasm in conscious guinea pigs", "type": "in vivo, guinea pig", "procedure": "The figure in parentheses indicates the number out of 10 animals in which the latency period more than tripled.\nThe latency period is to be understood to be the time from the start of acetylcholine-atomization until clear signs of asthma appeared.\nThe time from the start of atomization to the onset of clear respiratory exertion (in certain circumstances, hypoxic convulsion in the lateral position) is measured, and is denoted the latency period.\nThe test substance is administered orally by gavage (standard dose 100 μmol/kg, volume 1 ml of 4% strength methocel suspension in 0.9% strength sodium chloride solution/kg). […] Prolongation of the latency period to at least twice its length is regarded as a protective effect."}},
  "data": [
    {"smiles": "CCCCOc1ccc(-c2ccc(=O)[nH]n2)cc1OC", "note": "[Serial No. 3, 6-(4-n-butoxy-3-methoxyphenyl)-3[2H]pyridazinone]", "values": [
      {"measurement": "[EC40 pot.] theophylline / [EC40 pot.] substance", "setting": "[1]", "result": 63.2},
      {"measurement": "EC40", "setting": "[1]", "result": 6610, "unit": "nM"},
      {"measurement": "EC50", "setting": "[2]", "result": 2510, "unit": "nM"},
      {"measurement": "[EC40 pot.] left atrium / [EC50] trachea", "setting": "[2]", "result": 2.6},
      {"measurement": "[EC50] theophylline / [EC50] substance", "setting": "[2]", "result": 53.8},
      {"measurement": "tolerated dose", "setting": "[3]", "result": "> 761"}
    ]},
    {"smiles": "COc1cc(-c2ccc(=O)[nH]n2)ccc1OCCC(C)C", "note": "[Serial No. 6, 6-[3-methoxy-4-(3-methylbutoxy)-phenyl]-3[2H]pyridazinone]", "values": [
      {"measurement": "[EC40 pot.] theophylline / [EC40 pot.] substance", "setting": "[1]", "result": 4.6},
      {"measurement": "EC40", "setting": "[1]", "result": 91200, "unit": "nM"},
      {"measurement": "EC50", "setting": "[2]", "result": 708, "unit": "nM"},
      {"measurement": "[EC40 pot.] left atrium / [EC50] trachea", "setting": "[2]", "result": 219},
      {"measurement": "[EC50] theophylline / [EC50] substance", "setting": "[2]", "result": 190},
      {"measurement": "tolerated dose", "setting": "[3]", "result": "> 800"}
    ]},
    {"smiles": "COc1ccc(-c2ccc(=O)[nH]n2)cc1OCC(C)C", "note": "[Serial No. 15, 6-(4-methoxy-3-isobutoxyphenyl)-3[2H]pyridazinone]", "values": [
      {"measurement": "[EC40 pot.] theophylline / [EC40 pot.] substance", "setting": "[1]", "result": 1122},
      {"measurement": "EC40", "setting": "[1]", "result": 372, "unit": "nM"},
      {"measurement": "EC50", "setting": "[2]", "result": 724, "unit": "nM"},
      {"measurement": "[EC40 pot.] left atrium / [EC50] trachea", "setting": "[2]", "result": 0.5},
      {"measurement": "[EC50] theophylline / [EC50] substance", "setting": "[2]", "result": 186},
      {"measurement": "inhibition of histamine-induced bronchospasm, TVi", "setting": "[4]; 2 min", "result": 99, "unit": "%"},
      {"measurement": "inhibition of histamine-induced bronchospasm, Vmaxe", "setting": "[4]; 2 min", "result": 108, "unit": "%"},
      {"measurement": "inhibition of histamine-induced bronchospasm, Vmaxi", "setting": "[4]; 2 min", "result": 172, "unit": "%"},
      {"measurement": "inhibition of histamine-induced bronchospasm, TVi", "setting": "[4]; 10 min", "result": 107, "unit": "%"},
      {"measurement": "inhibition of histamine-induced bronchospasm, Vmaxe", "setting": "[4]; 10 min", "result": 123, "unit": "%"},
      {"measurement": "inhibition of histamine-induced bronchospasm, Vmaxi", "setting": "[4]; 10 min", "result": 119, "unit": "%"},
      {"measurement": "inhibition of histamine-induced bronchospasm, TVi", "setting": "[4]; 20 min", "result": 104, "unit": "%"},
      {"measurement": "inhibition of histamine-induced bronchospasm, Vmaxe", "setting": "[4]; 20 min", "result": 103, "unit": "%"},
      {"measurement": "inhibition of histamine-induced bronchospasm, Vmaxi", "setting": "[4]; 20 min", "result": 110, "unit": "%"},
      {"measurement": "inhibition of histamine-induced bronchospasm, TVi", "setting": "[4]; 30 min", "result": 63, "unit": "%"},
      {"measurement": "inhibition of histamine-induced bronchospasm, Vmaxe", "setting": "[4]; 30 min", "result": 84, "unit": "%"},
      {"measurement": "inhibition of histamine-induced bronchospasm, Vmaxi", "setting": "[4]; 30 min", "result": 82, "unit": "%"},
      {"measurement": "inhibition of histamine-induced bronchospasm, TVi", "setting": "[4]; 60 min", "result": 33, "unit": "%"},
      {"measurement": "inhibition of histamine-induced bronchospasm, Vmaxe", "setting": "[4]; 60 min", "result": 46, "unit": "%"},
      {"measurement": "inhibition of histamine-induced bronchospasm, Vmaxi", "setting": "[4]; 60 min", "result": 60, "unit": "%"},
      {"measurement": "inhibition of histamine-induced bronchospasm compared with theophylline", "setting": "[4]; result in words", "result": "significantly more effective than theophylline"},
      {"measurement": "Doubling of the latency period", "setting": "[5]; 100 μmol/kg p.o., 30 min", "result": "10 N of 10 animals"},
      {"measurement": "Tripling of the latency period", "setting": "[5]; 100 μmol/kg p.o., 30 min, figure in parentheses", "result": "10 N of 10 animals"},
      {"measurement": "protective effect compared with theophylline", "setting": "[5]; result in words", "result": "greater protective effect"}
    ]}
  ]
}
